Tested on: Myelin Basic Protein (MBP) expression
Assay: MBP expression in PMP22 TG sensory neuron/Schwann cell co-cultures (in vitro model of CMT1A)
Format: cell-based, rat
Settings: day 10 (=17 days of culture), doses 1 and 6, in presence of ascorbic acid, compared to control
Experimental: A model of co-culture was used as an in vitro model of CMT1A. This model of myelination consists in co-culturing sensory neurons and Schwann cells from male PMP22 Transgenic (TG) dissociated Dorsal Root Ganglia (DRG).
The aim of this study is to assess the effect of 3 test compounds (+/− baclofen, naltrexone and sorbitol) and Mix7 (a mixture of these 3 drugs) on myelination process. The effect of the 3 test compounds, and their mixture on myelination, are assessed by evaluating Myelin Basic Protein (MBP) expression in presence of ascorbic acid.
Each embryo is dispatched on numerating petri dish (35 mm of diameter). The head of embryo is cut, placed on 1.5 ml tube DNAase free; the ADN is extracted with the Extract-N-Amp Tissue Kit (Sigma Aldrich). The genotyping (Male (M) and female (F), wild type and PMP22 transgenic) is performed with the kit Fast SYBR Green Master Mix (Applied Biosystem). This genotyping is performed in parallel of the dissection of dorsal root ganglia (DRG), so that at the end of the dissection, only one type of culture (DRG from transgenic male) is done. DRG of each embryo is collected, placed in ice-cold medium of Leibovitz (L15, Invitrogen). At the end of the dissection, DRG of TGM are pooled and dissociated by trypsinization (trypsin EDTA, 0.05%; Invitrogen) for 20 min at 37° C. The reaction is stopped by addition of DMEM containing 10% of fetal bovine serum (FBS) in the presence of DNAase I (Roche). The suspension is triturated with a 10 ml pipette. Cells are then centrifuged at 350×g for 10 min at room temperature. […] Viable cells are counted in a Neubauer cytometer using the trypan blue exclusion test (Sigma) and seeded on the basis of 10 000 cells per well in 96 well-plates (Greiner) treated with poly-L-lysine. […]
Three separate and independent cultures of DRG (from TG embryos male rats) are done. These conditions are assessed in presence of ascorbic acid, 6 wells per condition. The solution ready to use of all test compounds are extemporaneously prepared from a stock solution, stored at −20° C. […]

SMILES	MBP expression
NCC(CC(=O)O)c1ccc(Cl)cc1 (racemic) [(RS)-baclofen]	no substantial effect
OC[C@@H](O)[C@@H](O)[C@H](O)[C@@H](O)CO [D-sorbitol]	no substantial effect
O=C1CC[C@@]2(O)[C@H]3Cc4ccc(O)c5c4[C@@]2(CCN3CC2CC2)[C@H]1O5 [naltrexone]	no substantial effect
